Earlier results as cited in US9068996B2, “Analyte detection method” (SPHERE MEDICAL LIMITED, priority 2010, dated 2015).
Read-outs that look alike come from different tables or passages of the source.

Conditions: for average blood propofol concentration required: patients

CC(C)c1cccc(C(C)C)c1O [propofol, 2,6-di-isopropylphenol]
Blood propofol concentration at which 50% of patients (EC50) were awake (after surgery, awake): 1.07 µg/mL
Blood propofol concentration at which 50% of patients (EC50) were oriented (after surgery, oriented): 0.95 µg/mL
average blood propofol concentration required (major surgery): 4.05 ± 1.01 µg/mL
average blood propofol concentration required (non-major surgery): 2.97 ± 1.07 µg/mL
